Structures are written as SMILES. Converted amounts (≈) assume the structure as drawn. Like-named read-outs stand apart in the source and are kept apart here. A value given as a limit tells only on which side of the number the result lay.

A short description of data set [1]: pH determination during dissolution in simulated lung fluid. Type of data set: physicochemical. As to conditions: equimolar amount (0.017 mol) in 20 mL SLF, initial pH 7.4, 37° C. The protocol:
The solution containing the samples was stirred at 75 rpm with a magnetic bar at 37° C., followed by in situ pH measurement at designated time points, i.e., 2 s, 5 s, 10 s, 15 s, 30 s, 45 s, 1 min, 1.5 min, 2 min, 3 min, 5 min, and 10 min, using a pH meter (Lab 850, Schott Instruments, United Kingdom).

A further data set concerns SARS-COV-2. As to conditions: in vitro, human precision-cut lung slices; cited from earlier work.
Data set [2] is described as follows: In-vitro drug release study in pH 7.4 simulated lung fluid. Type of data set: physicochemical. As to conditions: 20 mL pH 7.4 SLF3, 37° C., 75 rpm, LAG cocrystal <63 μm, n=3.
The test system of another data set is A549 cells. Put plainly: MTT cell viability assay. As to conditions: 24 hours, 0.05 to 10 μM. The protocol: A549 cells were cultured in DMEM/F12 medium supplemented with 10% (v/v) FBS and 1% (v/v) antibiotic-antimycotic at 37° C. in a humidified incubator with 5% CO2. On the day prior to treatment addition, approximately 2×10^4 cells/well were seeded into 96-well plates and incubated overnight. […] Upon the treatment, the cells were incubated with 200 μL of MTT reagent (0.8 mg/mL) for 3 hours at 37° C. 100 μL of isopropyl alcohol was then added to each well to solubilize the formazan dye crystals and the absorbance at 570 nm was measured using a microplate spectrophotometer (Thermo Scientific™ Multiskan™ GO, Thermo-Fisher, Waltham, MA, USA). Cell viability (%) was calculated by dividing the absorbance of treated cells by the absorbance of cells from the control group with equivalent concentration of DMSO as the treatment group. Six replicates were made for each concentration and the whole MTT assay was repeated in triplicate.
A general note: Tetrazolium assays rely on reduction of a dye to a coloured formazan, in cell work by metabolically active cells.

The conditions of data set [3]: deposited dose 0.35 mg/kg by inhalation vs 10 mg/kg intravenous, African green monkeys; cited from earlier work.
For data set [4] the following is noted: cited from earlier work.
Data set [5] is described as follows: Equilibrium solubility measurement in organic solvents. Type of data set: physicochemical. As to conditions: 25 °C, organic solvent or mixture, thermodynamic from solid. The protocol:
10 μL samples were injected onto the column.
Samples were filtered through 0.45 μm membrane filters, followed by dilution to appropriate concentrations for the HPLC assay.

For data set [6] the following is noted: intravenous doses, healthy subjects, cited from earlier work.

Turning to `O=C(O)c1ccccc1O` [SA, Salicylic acid], in data set [1], the “medium pH at end point of dissolution (10 min)” value is reported as 7.35±0.03 and the “medium pH in 2 seconds (transient drop)” value is 6.89±0.02. Further, the SARS-COV-2 viral replication result in the data set with SARS-COV-2 is “inhibit SARS-COV-2 viral replication”.

Regarding `CCC(CC)COC(=O)C(C)NP(=O)(OCC1OC(C#N)(c2ccc3c(N)ncnn23)C(O)C1O)Oc1ccccc1.O=C(O)c1ccccc1O` (stereo not drawn) [RDV−SA, cocrystal of remdesivir and salicylic acid], the “RDV dissolved at 120 min” value in data set [2] is 71.22%. Besides, the cell viability result in the data set on A549 cells was “around 100%”. In addition, the “medium pH at end point of dissolution (10 min)” value in data set [1] is given as 7.41±0.01.

By aqueous solubility is commonly meant the dissolved amount per volume that the medium holds. The solubility is the dissolved amount per volume that the medium holds. For the compound `CCC(CC)COC(=O)[C@H](C)N[P@](=O)(OC[C@H]1O[C@@](C#N)(c2ccc3c(N)ncnn23)[C@H](O)[C@@H]1O)Oc1ccccc1` [RDV, Remdesivir], the “lung RDV triphosphate levels, inhaled vs intravenous” value in data set [3] is “similar”. For the same compound, the aqueous solubility in data set [4] (background statement) was under 0.03 mg/mL. Further, in data set [4] (water at 25° C.), the solubility in water is 0.028 mg/mL (≈ 0.0465 mM). Further, the solubility at 72 h came out at 66.4 ± 5.34 mg/mL (≈ 110 mM) in data set [5] (Acetone); 5.68 ± 0.6 mg/mL (≈ 9.43 mM) in data set [5] (Acetonitrile); 3.86 ± 0.3 mg/mL (≈ 6.41 mM) in data set [5] (Chloroform); 34.2 ± 2.29 mg/mL (≈ 56.7 mM) in data set [5] (Ethanol); 191 ± 13.3 mg/mL (≈ 317 mM) in data set [5] (Methanol). In the data set with A549 cells, the cell viability result was “around 100%”. Moreover, the figures for the “highest plasma concentration of RDV observed” value in data set [6] and in data set [6] (converted value) were 4420 ng/mL and about 7.8 µM, respectively.

As for `CC(=O)Oc1ccccc1C(=O)O` [ASA, acetylsalicylic acid], the SARS-COV-2 viral replication entry in the data set on SARS-COV-2 is “inhibit SARS-COV-2 viral replication”.

(Values after US20240307427A1 (priority 2023, published 2024).)
